Source: US8097656B2, “Nitrogenated trans-stilbene analogs, method for the obtention and medical applications thereof” (Dominion Pharmakine S.L, priority 2005, dated 2012)

What was measured:
[1] = system: MB16 cells; assay: MB16 hepatic metastasis test after intrasplenic injection; type: in vivo, C57BL/6J mice; conditions: 1 mg/Kg/day nasogastrically; for Reduction of the mean density of hepatic metastases: daily, vs control animals, P<0.01; for No. portal metases/No. sinusoidal metastasis (ratio in brackets) / Percentage of focal points w/cavitation (% of total no. of metastatic focal points) / No. portal metases / No. sinusoidal metastasis / Volume of hepatic metastasis (mm^3) / Hepatic focal point density (No. focal points/100 mm^3) / Metastatic cell proliferation index (% cells positive to Ki67 antigen) / Length of angiogenic vessels (μm): day 12; for No. portal metases/No. sinusoidal metastasis (ratio in brackets): control 1; for Percentage of focal points w/cavitation (% of total no. of metastatic focal points): control 13.5 ± 5.0; for No. portal metases / No. sinusoidal metastasis: control 30; for Volume of hepatic metastasis (mm^3): control 60.0 ± 7.5; for Hepatic focal point density (No. focal points/100 mm^3): control 60.0 ± 11; for Metastatic cell proliferation index (% cells positive to Ki67 antigen): control 71.0 ± 5.0; for Length of angiogenic vessels (μm): control 175.0 ± 10
Description: MB16 Hepatic Metastasis Test using C57 BL/6J mice (males 6-8 weeks of age) supplied by IFFA Credo (L'Arbreole, France). The care, maintenance and experimental conditions were carried out in accordance with that which is set forth under EEC Council Directive 86/609 (OJ L 358. 1, Dec. 12, 1987) and the NIH guide for the care and use of laboratory animals (NIH publication 85-23, 1985). In the experiments with the resveratrol and azaresveratrol compounds (Table 1), the animals (10 per group) received 1 mg/Kg/day of the compounds nasogastrically every day up to the time of sacrifice. In the experiments with the JE2:2 compound (FIG. 12), one group of mice (n=10) was given an intraperitoneal injection of 0.5 mg/kg of the JE2:2 compound dissolved in 0.1 ml of PBS. The control group (n=10), was given an intraperitoneal injection of PBS. One hour later, animals were anesthetized and were intrasplenically injected with MB16 cells (3×10^5 cells/mouse). The same treatments, at the same doses, were repeated on days 2, 3, 4, 8, 9, 10 and 11 following tumor injection.
Twelve (12) days later, the livers were removed and processed for the histological study. Firstly, they were fixed in a solution of zinc (0.5 g calcium acetate, 5 g zinc acetate, 5 g zinc chloride and 1000 ml tris buffer, pH 7.4) for 24 hours. Once fixed, they were dehydrated in alcohols of increasing concentrations, and paraffin block were included. Afterward, a minimum of nine (9) cuts 10 μm in thickness were made per liver, leaving a space of 300 μm between every 3 cuts and a 1 mm space between successive groups of 3 cuts. Once the sections had been obtained, they were processed and stained with hematoxylin-eosine. On the one hand, the number, mean diameter, area and position coordinates of each metastasis were quantified by means of an integrated image analysis system (Olympus Microimage 4.0 capture kit) connected to an Olympus BX51TF microscope. With obtained data, metastatic parameters (that is to say, the number of focal points per 100 mm^3 of hepatic tissue) and metastatic volume (that is to say, the volume of liver occupied by metastatic tissue) were calculated as described by Vidal-Vanaclocha et al. [cf. Vidal-Vanaclocha, F., Amézaga, C., Asumendi, A., Kaplanski, G. & Dinarello, C. A. “Interleukin-1 receptor blockade reduces the number and size of murine B 16 melanoma hepatic metastases”, Cancer Research, 1994, vol. 54, pp. 2667-2672]. On the other hand, more cuts were made in the same blocks, and a double marking with CD31 and desmine was performed to calculate the number and length of the angiogenic vessels within the metastases and also to study metastases according to their angiogenic pattern in portal-type expansive metastases (the angiogenic vessels surround the metastases) or sinusoidal type invasive metastases (containing an internal network of angiogenic capillaries). Another parameter that was quantified is the cavitated metastasis percentage. Lastly, immunohistochemical detection of Ki67 antigen was performed to assess the number of tumor cells which proliferated per unit of tumor surface.
To this end, the MB16 cells were intrasplenically injected in C57BL/6J mice (3×10^5 viable cells per animal resuspended in endotoxin-free sterile saline solution), 12 days after which the capacity thereof of development metastasis was determined.
One group of mice (n=7) were administered an intraperitoneal injection of JE2:2 (2.5 mg/kg) 1′ hour prior to tumor cell injection, and the same dose was repeated on days 2, 3, 4, 8, 9, 10 and 11 in following thereto. The group of control mice (n=7) was administered PBS.

[2] = system: MA375 cells; assay: In vitro proliferation of MA375 cells in response to human HSC soluble factors; type: cell-based; conditions: for Increase in proliferation of A375 cells by MC-CEH (in words): 2.5 μM for 30 minutes before MC-CEH, 48 hours; for Proliferation of MA375 cells in response to human HSC soluble factors (No. cells per well): 2.5 μM, 30 min before HSC-conditioned media, 48 h, control 9000 ± 60, treatment alone 17500 ± 50
Description: Culture of B16 (MB16) and A375 (MA375) melanoma cells. The MB 16 (B16F10 subline) murine tumor cells were cultured at 37° C., with 5% CO2 atmosphere in Dulbecco's modified Eagle's medium (DMEM)-HCO3 penicillin (100 U/ml), streptomycin (100 μg/ml), supplemented with 5% fetal bovine serum and adjusted to pH 7.4. The cells were maintained and subcultured according to the method described by Vidal-Vanaclocha et al. (1994) [Vidal-Vanaclocha, F., Amézaga, C., Asumendi, A., Kaplanski, G. & Dinarello, C. A. Interleukin-1 receptor blockade reduces the number and size of murine B16 melanoma hepatic metastases. Cancer Research, 1994, 54, 2667-2672]. The conditioned media were obtained from subconfluyent cultures maintained in absence of FBS for 24 hours.
In vitro Melanoma cell proliferation test. The MB16 or MA375 cells are seeded (2500 cells/well/200 μl) in DMEM medium (Dulbecco's modified Eagle's medium) with 10% fetal bovine serum (FBS). Once adhered, they were washed to remove the FBS and fresh medium was added in the presence or absence of 2.5 μM of the compounds to be tested. In the experiments with MA375, the compound azaresveratrol (see Table 4) was used, and in the experiments with MB16 cells, the compounds azaresveratrol, JE1:2, JE2:1 or JE2:2 (see FIG. 3) were used. Thirty (30) minutes later, 10 ng/ml of IL-18 or HSC-conditioned media (murines in the case of B16 and human ones in the case of A375) were added to some wells, and the plates were incubated for 48 hours at 37° C. with 5% CO2 Upon completion of the incubation period, the cells were fixed with […] for 1 hours, were washed and were allowed to dry in the incubator at 50° C. for 30 minutes. In following, 100 μl/well of sulforhodamine 101 (0.4% p/v) was added and they were incubated at room temperature in the dark for 30 minutes. After washing, 200 μl/well of Tris base 10 mM pH 10.5 was added and the fluorescence was measured by means of a 530 nm, 620 nm emission excitation filter plate fluorescence reader. The number of cells was calculated by extrapolating said fluorescence data on a standard straight line previously obtained based on the fluorescence emitted in an increasing number of cells.

Row | SMILES | Reduction of the mean density of hepatic metastases [1] [%] | No. portal metases/No. sinusoidal metastasis (ratio in brackets) [1] | Percentage of focal points w/cavitation (% of total no. of metastatic focal points) [1] [%] | No. portal metases [1] | No. sinusoidal metastasis [1] | Volume of hepatic metastasis (mm^3) [1] [mm^3] | Hepatic focal point density (No. focal points/100 mm^3) [1] [No. focal points/100 mm^3] | Metastatic cell proliferation index (% cells positive to Ki67 antigen) [1] [%] | Length of angiogenic vessels (μm) [1] [μm] | Increase in proliferation of A375 cells by MC-CEH (in words) [2] | Proliferation of MA375 cells in response to human HSC soluble factors (No. cells per well) [2] [No. cells per well]
1 | Oc1ccc(/N=C/c2cc(O)cc(O)c2)cc1 [azaresveratrol, 5-((E)-(4-Hydroxyphenylimino)methyl)benzene-1,3-diol] | 46 | 4.09 | 40.0 ± 10 | 22.5 | 5.5 | 24.0 ± 9.0 | 28.0 ± 10 | 35.0 ± 10 | 88.0 ± 21 | prevented | 9250 ± 65
2 | Oc1ccc(C=Cc2cc(O)cc(O)c2)cc1 [resveratrol, reference compound] | 50 | 3 | 41.5 ± 11 | 22.5 | 7.5 | 18.7 ± 7.5 | 30.0 ± 11 | 40.0 ± 5.0 | 88.0 ± 23 | prevented | 9050 ± 100
